Positions of bridges follow the written chain, without caps; N, C: chain ends. Non-standard residues stand in square brackets, D forms with d. Residues, ends and D or L forms follow the SMILES beside them. *: point of attachment. Phe(3,4,5-F3) = N[C@@H](Cc1cc(F)c(F)c(F)c1)C(=O)O; dPhe(3,4,5-F3) = N[C@H](Cc1cc(F)c(F)c(F)c1)C(=O)O; Phe(4-CF3) = N[C@@H](Cc1ccc(C(F)(F)F)cc1)C(=O)O; dPhe(4-CF3) = N[C@H](Cc1ccc(C(F)(F)F)cc1)C(=O)O; dPhe(F5) = N[C@H](Cc1c(F)c(F)c(F)c(F)c1F)C(=O)O; Benzoyl(4-Ph) = O=C(c1ccc(-c2ccccc2)cc1)*; Phe(3-F) = N[C@@H](Cc1cccc(F)c1)C(=O)O; Phe(4-F) = N[C@@H](Cc1ccc(F)cc1)C(=O)O; dPhe(3-F) = N[C@H](Cc1cccc(F)c1)C(=O)O; dPhe(4-F) = N[C@H](Cc1ccc(F)cc1)C(=O)O; Phe(2-F) = N[C@@H](Cc1ccccc1F)C(=O)O; dPhe(2-F) = N[C@H](Cc1ccccc1F)C(=O)O; d(hPhe) = N[C@H](CCc1ccccc1)C(=O)O; hhPhe = N[C@@H](CCCc1ccccc1)C(=O)O; d(hLeu) = CC(C)CC[C@@H](N)C(=O)O; dAoc(2) = CCCCCC[C@@H](N)C(=O)O; Octanoyl = CCCCCCCC(=O)*; Dab = NCC[C@H](N)C(=O)O
Experiment: Hemolytic activity in human RBC at 400 ug/ml after 1 hr
Format: toxicity, cell-based, Erythrocyte
Conditions: red blood cells (erythrocytes), at 400 µg/mL, read-out: Activity
Molecule `CC[C@H](C)[C@@H]1NC(=O)[C@@H](CC(C)C)NC(=O)[C@H](CCN)NC(=O)[C@@H](NC(=O)[C@@H](CO)NC(=O)[C@@H](NC(=O)[C@H](CCN)NC(=O)c2ccc(-c3ccccc3)cc2)[C@@H](C)O)CCNC(=O)[C@H](CC(C)C)NC(=O)[C@H](CCN)NC(=O)[C@H](CCN)NC1=O` ({Benzoyl(4-Ph)}-[Dab]T[dS][Dab][Dab][dL]I[Dab][Dab]L; lactam 4-C) has a hemolysis at 1 h, 400 ug/ml of less than 10%. Work on `CCCCCCCC(=O)N[C@@H](CCN)C(=O)N[C@H](C(=O)N[C@@H](CCN)C(=O)N[C@H]1CCNC(=O)[C@H]([C@@H](C)O)NC(=O)[C@H](CCN)NC(=O)[C@H](CCN)NC(=O)[C@H](Cc2ccccc2F)NC(=O)[C@@H](CC(C)C)NC(=O)[C@H](CCN)NC1=O)[C@@H](C)O` (Octanoyl-[Dab]T[Dab][Dab][Dab][dL][Phe(2-F)][Dab][Dab]T; lactam 4-C) yielded a hemolysis at 1 h, 400 ug/ml of less than 10%. For `CCCCCCCC(=O)N[C@@H](CCN)C(=O)N[C@H](C(=O)N[C@@H](CCN)C(=O)N[C@H]1CCNC(=O)[C@H]([C@@H](C)O)NC(=O)[C@H](CCN)NC(=O)[C@H](CCN)NC(=O)[C@H](CC(C)C)NC(=O)[C@@H](Cc2cc(F)c(F)c(F)c2)NC(=O)[C@H](CCN)NC1=O)[C@@H](C)O` (Octanoyl-[Dab]T[Dab][Dab][Dab][dPhe(3,4,5-F3)]L[Dab][Dab]T; lactam 4-C), the hemolysis at 1 h, 400 ug/ml was less than 10%. In the case of `CCCCCCCC(=O)N[C@@H](CCN)C(=O)N[C@H](C(=O)N[C@@H](CCN)C(=O)N[C@H]1CCNC(=O)[C@H]([C@@H](C)O)NC(=O)[C@H](CCN)NC(=O)[C@H](CCN)NC(=O)[C@H](CCCc2ccccc2)NC(=O)[C@@H](CC(C)C)NC(=O)[C@H](CCN)NC1=O)[C@@H](C)O` (Octanoyl-[Dab]T[Dab][Dab][Dab][dL][hhPhe][Dab][Dab]T; lactam 4-C), the hemolysis at 1 h, 400 ug/ml is reported as less than 10%. With `CCCCCCCC(=O)N[C@@H](CCN)C(=O)N[C@H](C(=O)N[C@@H](CCN)C(=O)N[C@H]1CCNC(=O)[C@H]([C@@H](C)O)NC(=O)[C@H](CCN)NC(=O)[C@H](CCN)NC(=O)[C@H](Cc2ccccc2)NC(=O)[C@@H](CCCCCC)NC(=O)[C@H](CCN)NC1=O)[C@@H](C)O` (Octanoyl-[Dab]T[Dab][Dab][Dab][dAoc(2)]F[Dab][Dab]T; lactam 4-C) the hemolysis at 1 h, 400 ug/ml was less than 10%. In the case of `CCCCCCCC(=O)N[C@@H](CCN)C(=O)N[C@H](C(=O)N[C@@H](CCN)C(=O)N[C@H]1CCNC(=O)[C@H]([C@@H](C)O)NC(=O)[C@H](CCN)NC(=O)[C@H](CCN)NC(=O)[C@H](Cc2cccc(F)c2)NC(=O)[C@@H](CC(C)C)NC(=O)[C@H](CCN)NC1=O)[C@@H](C)O` (Octanoyl-[Dab]T[Dab][Dab][Dab][dL][Phe(3-F)][Dab][Dab]T; lactam 4-C), the hemolysis at 1 h, 400 ug/ml is reported as less than 10%. With `CCCCCCCC(=O)N[C@@H](CCN)C(=O)N[C@H](C(=O)N[C@@H](CCN)C(=O)N[C@H]1CCNC(=O)[C@H]([C@@H](C)O)NC(=O)[C@H](CCN)NC(=O)[C@H](CCN)NC(=O)[C@H](CC(C)C)NC(=O)[C@@H](Cc2ccccc2F)NC(=O)[C@H](CCN)NC1=O)[C@@H](C)O` (Octanoyl-[Dab]T[Dab][Dab][Dab][dPhe(2-F)]L[Dab][Dab]T; lactam 4-C) the hemolysis at 1 h, 400 ug/ml was less than 10%. For `CCCCCCCC(=O)N[C@@H](CCN)C(=O)N[C@H](C(=O)N[C@@H](CCN)C(=O)N[C@H]1CCNC(=O)[C@H]([C@@H](C)O)NC(=O)[C@H](CCN)NC(=O)[C@H](CCN)NC(=O)[C@H](Cc2ccccc2)NC(=O)[C@@H](CCC(C)C)NC(=O)[C@H](CCN)NC1=O)[C@@H](C)O` (Octanoyl-[Dab]T[Dab][Dab][Dab][d(hLeu)]F[Dab][Dab]T; lactam 4-C), the hemolysis at 1 h, 400 ug/ml was less than 10%. Molecule `CCCCCCCC(=O)N[C@@H](CCN)C(=O)N[C@H](C(=O)N[C@@H](CCN)C(=O)N[C@H]1CCNC(=O)[C@H]([C@@H](C)O)NC(=O)[C@H](CCN)NC(=O)[C@H](CCN)NC(=O)[C@H](CC(C)C)NC(=O)[C@@H](Cc2cccc(F)c2)NC(=O)[C@H](CCN)NC1=O)[C@@H](C)O` (Octanoyl-[Dab]T[Dab][Dab][Dab][dPhe(3-F)]L[Dab][Dab]T; lactam 4-C) has a hemolysis at 1 h, 400 ug/ml of less than 10%. `CCCCCCCC(=O)N[C@@H](CCN)C(=O)N[C@H](C(=O)N[C@@H](CCN)C(=O)N[C@H]1CCNC(=O)[C@H]([C@@H](C)O)NC(=O)[C@H](CCN)NC(=O)[C@H](CCN)NC(=O)[C@H](Cc2cc(F)c(F)c(F)c2)NC(=O)[C@@H](CC(C)C)NC(=O)[C@H](CCN)NC1=O)[C@@H](C)O` (Octanoyl-[Dab]T[Dab][Dab][Dab][dL][Phe(3,4,5-F3)][Dab][Dab]T; lactam 4-C) showed a hemolysis at 1 h, 400 ug/ml of less than 10%. Work on `CCCCCCCC(=O)N[C@@H](CCN)C(=O)N[C@H](C(=O)N[C@@H](CCN)C(=O)N[C@H]1CCNC(=O)[C@H]([C@@H](C)O)NC(=O)[C@H](CCN)NC(=O)[C@H](CCN)NC(=O)[C@H](Cc2ccc(C(F)(F)F)cc2)NC(=O)[C@@H](CC(C)C)NC(=O)[C@H](CCN)NC1=O)[C@@H](C)O` (Octanoyl-[Dab]T[Dab][Dab][Dab][dL][Phe(4-CF3)][Dab][Dab]T; lactam 4-C) yielded a hemolysis at 1 h, 400 ug/ml of less than 10%. With `CCCCCCCC(=O)N[C@@H](CCN)C(=O)N[C@H](C(=O)N[C@@H](CCN)C(=O)N[C@H]1CCNC(=O)[C@H]([C@@H](C)O)NC(=O)[C@H](CCN)NC(=O)[C@H](CCN)NC(=O)[C@H](CC(C)C)NC(=O)[C@@H](Cc2c(F)c(F)c(F)c(F)c2F)NC(=O)[C@H](CCN)NC1=O)[C@@H](C)O` (Octanoyl-[Dab]T[Dab][Dab][Dab][dPhe(F5)]L[Dab][Dab]T; lactam 4-C) the hemolysis at 1 h, 400 ug/ml was less than 10%. `CCCCCCCC(=O)N[C@@H](CCN)C(=O)N[C@H](C(=O)N[C@@H](CCN)C(=O)N[C@H]1CCNC(=O)[C@H]([C@@H](C)O)NC(=O)[C@H](CCN)NC(=O)[C@H](CCN)NC(=O)[C@H](CC(C)C)NC(=O)[C@@H](Cc2ccc(F)cc2)NC(=O)[C@H](CCN)NC1=O)[C@@H](C)O` (Octanoyl-[Dab]T[Dab][Dab][Dab][dPhe(4-F)]L[Dab][Dab]T; lactam 4-C) gave a hemolysis at 1 h, 400 ug/ml of less than 10%. With `CCCCCCCC(=O)N[C@@H](CCN)C(=O)N[C@H](C(=O)N[C@@H](CCN)C(=O)N[C@H]1CCNC(=O)[C@H]([C@@H](C)O)NC(=O)[C@H](CCN)NC(=O)[C@H](CCN)NC(=O)[C@H](CC(C)C)NC(=O)[C@@H](Cc2ccc(C(F)(F)F)cc2)NC(=O)[C@H](CCN)NC1=O)[C@@H](C)O` (Octanoyl-[Dab]T[Dab][Dab][Dab][dPhe(4-CF3)]L[Dab][Dab]T; lactam 4-C) the hemolysis at 1 h, 400 ug/ml was less than 10%. With `CCCCCCCC(=O)N[C@@H](CCN)C(=O)N[C@H](C(=O)N[C@@H](CCN)C(=O)N[C@H]1CCNC(=O)[C@H]([C@@H](C)O)NC(=O)[C@H](CCN)NC(=O)[C@H](CCN)NC(=O)[C@H](CC(C)C)NC(=O)[C@@H](CCc2ccccc2)NC(=O)[C@H](CCN)NC1=O)[C@@H](C)O` (Octanoyl-[Dab]T[Dab][Dab][Dab][d(hPhe)]L[Dab][Dab]T; lactam 4-C) the hemolysis at 1 h, 400 ug/ml was less than 10%. With `CCCCCCCC(=O)N[C@@H](CCN)C(=O)N[C@H](C(=O)N[C@@H](CCN)C(=O)N[C@H]1CCNC(=O)[C@H]([C@@H](C)O)NC(=O)[C@H](CCN)NC(=O)[C@H](CCN)NC(=O)[C@H](Cc2ccc(F)cc2)NC(=O)[C@@H](CC(C)C)NC(=O)[C@H](CCN)NC1=O)[C@@H](C)O` (Octanoyl-[Dab]T[Dab][Dab][Dab][dL][Phe(4-F)][Dab][Dab]T; lactam 4-C) the hemolysis at 1 h, 400 ug/ml was less than 10%. Molecule `CCCCCCCC(=O)N[C@@H](CCN)C(=O)N[C@H](C(=O)N[C@@H](CCN)C(=O)N[C@H]1CCNC(=O)[C@H]([C@@H](C)O)NC(=O)[C@H](CCN)NC(=O)[C@H](CCN)NC(=O)[C@H](CC(C)C)NC(=O)[C@@H](Cc2ccc(Br)cc2)NC(=O)[C@H](CCN)NC1=O)[C@@H](C)O` has a hemolysis at 1 h, 400 ug/ml of less than 10%.
